Experimental data taken from patent US20240252488A1 (KOREA RESEARCH INSTITUTE OF CHEMICAL TECHNOLOGY, priority 2020, published 2024).

Experiments:
MLKL [1] = biological target: T1, MLKL (Homo sapiens, UniProt Q8NB16); experiment: MLKL degradation assay in HepG2 cell line (western blot); type: cell-based; parameters: endogenous in cells; host or cells: HepG2 or HaCaT; conditions: cell line not given; for Degradation assay (Degradation %) 1 μM: compound 1 μM; for Degradation assay (Degradation %) 10 μM: compound 10 μM
T1 sequence (Q8NB16 1-471): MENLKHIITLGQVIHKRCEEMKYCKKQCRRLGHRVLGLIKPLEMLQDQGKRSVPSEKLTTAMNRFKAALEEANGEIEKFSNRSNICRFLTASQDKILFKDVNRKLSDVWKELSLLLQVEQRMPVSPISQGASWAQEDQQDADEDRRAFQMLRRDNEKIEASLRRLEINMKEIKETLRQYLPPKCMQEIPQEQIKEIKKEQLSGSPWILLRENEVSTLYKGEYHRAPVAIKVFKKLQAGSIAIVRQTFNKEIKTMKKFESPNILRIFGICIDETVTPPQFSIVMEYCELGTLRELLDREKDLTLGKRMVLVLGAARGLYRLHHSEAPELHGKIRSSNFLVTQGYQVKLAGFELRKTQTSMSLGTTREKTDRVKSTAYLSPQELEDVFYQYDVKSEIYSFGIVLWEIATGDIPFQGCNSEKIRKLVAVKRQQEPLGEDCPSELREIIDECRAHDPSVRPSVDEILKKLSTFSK
Outline: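 Cells seeded, next day medium swapped for compound-containing medium (final 1 or 10 μM) and incubated 20-24 h at 37 °C. Lysates in RIPA with protease/phosphatase inhibitors were protein-matched by BCA, run on SDS-PAGE and immunoblotted for MLKL.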

MLKL [2] = biological target: T1, MLKL; experiment: Measurement of binding affinity with MLKL receptor (competitive binding assay, Kd); parameters: made in house; host or cells: HEK 293 cell line (T7 phage in E. coli BL21-derived host is also described)
Outline: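 Competitive displacement of MLKL, expressed in HEK 293 cells and DNA-tagged for qPCR, from immobilized ligand on biotin-blocked beads. Compounds were added from 111× DMSO stocks (final DMSO 0.9%). Kinase left in the eluates was quantified by qPCR to give Kd.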

FADD−/− Jurkat cells = experiment: Necroptosis inhibition assay, TNF-α-induced necroptosis (CellTiter-Glo 2.0); type: cell-based, human; conditions: TNF-α 15 ng/mL; for Necroptosis inhibition assay (Rescue %) 1 μM: compound 1 μM; for Necroptosis inhibition assay (Rescue %) 10 μM: compound 10 μM
Outline: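 Luminescent ATP measurement gave viability, from which cytotoxicity and necroptosis inhibition rate were derived. Before that, cells (5.0×10^5 cells/mL) saw compound at 0.1, 1 or 10 μM final for 30 minutes at room temperature, then TNF-α (15 ng/mL final) for 20 to 24 hours at 37° C.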

Structure (SMILES)	Degradation assay (Degradation %) 1 μM (MLKL [1])	Degradation assay (Degradation %) 10 μM (MLKL [1])	Kd (MLKL [2])	Necroptosis inhibition assay (Rescue %) 1 μM (FADD−/− Jurkat cells; FADD−/− Jurkat cells)	Necroptosis inhibition assay (Rescue %) 10 μM (FADD−/− Jurkat cells; FADD−/− Jurkat cells)	Necroptosis inhibition assay (Rescue %) 1 μM (FADD−/− Jurkat cells)	Necroptosis inhibition assay (Rescue %) 10 μM (FADD−/− Jurkat cells)
Nc1ncc(-c2cnn(C3CCN(CCOC4CCN(C(=O)c5ccc(C(=O)NC6CCC(=O)NC6=O)cc5)CC4)CC3)c2)nc1C(=O)O[C@@H](C(=O)Nc1ccc(F)cc1)c1ccccc1 (stereo partly drawn) [TDH-538, (R)-2-((4-fluorophenyl)amino)-2-oxo-1-phenylethyl 3-amino-6-(1-(1-(2-((1-(4-((2,6-dioxopiperidin-3-yl)carbamoyl)benzoyl)piperidin-4-yl)oxy)ethyl)piperidin-4-yl)-1H-pyrazol-4-yl)pyrazine-2-carboxylate]	66.34%	54.70%	0.31 nM	24.02%	21.52%		
Nc1ncc(-c2cnn(C3CCN(C(=O)C4CCN(C(=O)CNc5cccc6c5C(=O)N(C5CCC(=O)NC5=O)C6=O)CC4)CC3)c2)nc1C(=O)OC(C(=O)Nc1ccc(F)cc1)c1ccccc1 (stereo not shown) [TDH-275, 2-((4-fluorophenyl)amino)-2-oxo-1-phenylethyl 3-amino-6-(1-(1-(1-((2-(2,6-dioxopiperidin-3-yl)-1,3-dioxoisoindolin-4-yl)glycyl)piperidine-4-carbonyl)piperidin-4-yl)-1H-pyrazol-4-yl)pyrazine-2-carboxylate]	57.84%	63.11%	4.9 nM			69.59%	69.98%
COc1ccc(C(=O)N2CCC(C(=O)N3CCC(CCN4CCC(CN5CCC(n6cc(-c7cnc(N)c(C(=O)O[C@@H](C(=O)Nc8ccc(F)cc8)c8ccccc8)n7)cn6)CC5)CC4)CC3)CC2)cc1N1CCC(=O)NC1=O [TDH-502, (R)-2-((4-fluorophenyl)amino)-2-oxo-1-phenylethyl 3-amino-6-(1-(1-((1-(2-(1-(1-(3-(2,4-dioxotetrahydropyrimidin-1(2H)-yl)-4-methoxybenzoyl)piperidine-4-carbonyl)piperidin-4-yl)ethyl)piperidin-4-yl)methyl)piperidin-4-yl)-1H-pyrazol-4-yl)pyrazine-2-carboxylate]	85.39%	91.54%	0.42 nM	54.75%	66.18%		
Nc1ncc(-c2cnn(C3CCN(CC4CN(C(=O)C5CCN(c6cccc7c6C(=O)N(C6CCC(=O)NC6=O)C7=O)CC5)CCO4)CC3)c2)nc1C(=O)OC(C(=O)Nc1ccc(F)cc1)c1ccccc1 (stereo not shown) [TDH-304, 2-((4-fluorophenyl)amino)-2-oxo-1-phenylethyl 3-amino-6-(1-(1-((4-(1-(2-(2,6-dioxopiperidin-3-yl)-1,3-dioxoisoindolin-4-yl)piperidine-4-carbonyl)morpholin-2-yl)methyl)piperidin-4-yl)-1H-pyrazol-4-yl)pyrazine-2-carboxylate]	85.02%	84.91%	2.9 nM			38.26%	35.22%
Nc1ncc(-c2cnn(C3CCN(CC4CCN(C5=CC(=O)N(C6CCC(=O)NC6=O)C5=O)CC4)CC3)c2)nc1C(=O)O[C@@H](C(=O)Nc1ccc(F)cc1)c1ccccc1 (stereo partly drawn) [TDH-521, (R)-2-((4-fluorophenyl)amino)-2-oxo-1-phenylethyl 3-amino-6-(1-(1-((1-(1-(2,6-dioxopiperidin-3-yl)-2,5-dioxo-2,5-dihydro-1H-pyrrol-3-yl)piperidin-4-yl)methyl)piperidin-4-yl)-1H-pyrazol-4-yl)pyrazine-2-carboxylate]	91.54%	78.62%	1.5 nM	0.16%	1.33%		
